Like-named read-outs stand apart in the source and are kept apart here.
Assays:
[1] = BALB/C nude, mouse, in vivo, iv, 10 mg/kg
Protocol: Mice were killed at set time points. Plasma was taken after blood centrifugation. Tumor tissues were isolated, temporarily stored in dry ice and then transferred to −80° C. freezer for later use.
Tumor tissues were thawed, weighed and then added a certain amount of 50/50 methanol and water. The mixture was homogenized on the handheld homogenizer with ice bath, centrifuged at 4° C. 6000×g for 10 min, and the supernatant was collected.
30 μL of plasma or homogenized tumor supernatant were taken and added 200 μL of acetonitrile with internal standard (tolbutamide, 50 ng/mL). The mixture was vortexed for 5 min and centrifuged at 6000×g for 10 min. 75 μL of the supernatant was transferred to a 96-well plate pre-added with 75 μL of water and shaked at 500 rpm for 5 min. 2 μL of sample was injected for LC MS/MS analysis.
Column: ACQUITY UPLC BEH C18 (2.1×50 mm, 1.7 μm)
Phase A: 0.1% formic acid/water, Phase B: 0.1% formic acid/acetonitrile

HepG2 tumors = test: In vivo efficacy in HepG2 xenograft CDX mouse model; design: species or system BALB/C nude mice; settings: Day 33
Protocol: Biological Assessment Example F: […] The tumor volume was calculated as: […] The evaluation criteria are as follows: […]

[2] = test system: H69 small cell lung cancer; test: Efficacy on subcutaneous transplanted 1200 mm^3 H69 small cell lung cancer model; assay type: in vivo, BALB/C nude mice; settings: topotecan MTD 2 mg/kg (free base) once a day for five days; 1200 mm^3 tumors
From the text: Biological Assessment Example I: Comparison of Efficacy of 101B00G and Topotecan on Subcutaneous Transplanted 1200 mm^3 H69 Small Cell Lung Cancer Model

Plasma concentration of released drug, average value ([1]; 0.083 h)	Plasma concentration of released drug, average value ([1]; 0.5 h)	Plasma concentration of released drug, average value ([1]; 1 h)	Plasma concentration of released drug, average value ([1]; 3 h)	Plasma concentration of released drug, average value ([1]; 8 h)	Compound	TGI (%) / tumor inhibition rate (HepG2 tumors) [%]	Increase of tumor volume on Day 22 compared with the initial value [2] [%]
865	385	407	172.6	27.7	CCc1c2c(nc3ccc(OC(=O)N4CCC(N5CCCCC5)CC4)cc13)-c1cc3c(c(=O)n1C2)COC(=O)[C@]3(O)CC [irinotecan]	−49	
					CC[C@@]1(O)C(=O)OCc2c1cc1n(c2=O)Cc2cc3c(CN(C)C)c(O)ccc3nc2-1 [topotecan]		22

— patent US20250255977A1, “EPSILON-POLY-L-LYSINE-BASED DRUG CONJUGATE, INTERMEDIATE THEREOF, AND APPLICATION THEREOF” (SHANGHAI BEST-LINK BIOSCIENCE, LLC, priority 2021, published 2025)
